Drawing on patent US8329675B2, “Inhibitors of fatty acid amide hydrolase” (Infinity Pharmaceuticals, Inc., priority 2006, dated 2012), this text covers Ki for 71 compounds.

The target of this experiment is T1, human FAAH (Homo sapiens, UniProt O00519).
T1 construct: host or cells: COS-7 cells, transient transfection; 13,000 g membrane fraction solubilised in 1% Triton X-100
T1 sequence (O00519 1-579): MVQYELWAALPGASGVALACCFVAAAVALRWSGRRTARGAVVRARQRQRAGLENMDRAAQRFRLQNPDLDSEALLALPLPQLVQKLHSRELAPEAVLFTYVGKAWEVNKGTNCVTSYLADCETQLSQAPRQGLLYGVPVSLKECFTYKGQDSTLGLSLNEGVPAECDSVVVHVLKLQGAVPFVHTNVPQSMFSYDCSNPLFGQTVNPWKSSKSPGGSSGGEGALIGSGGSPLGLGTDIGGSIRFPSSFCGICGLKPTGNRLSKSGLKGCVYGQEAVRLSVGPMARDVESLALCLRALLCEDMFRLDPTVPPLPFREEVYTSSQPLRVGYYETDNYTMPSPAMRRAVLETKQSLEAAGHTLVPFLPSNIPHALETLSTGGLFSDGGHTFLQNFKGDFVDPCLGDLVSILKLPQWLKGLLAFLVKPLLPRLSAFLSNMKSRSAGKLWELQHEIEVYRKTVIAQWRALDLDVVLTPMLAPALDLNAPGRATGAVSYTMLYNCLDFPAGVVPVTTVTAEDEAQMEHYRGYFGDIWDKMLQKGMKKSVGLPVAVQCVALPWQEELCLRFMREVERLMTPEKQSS
The experiment in a line: Human FAAH biochemical inhibition assay (AMC arachidonoyl amide fluorescence). The following applies: Table 2, human FAAH (no asterisk); read-out: Activity (Ki). The method, boiled down: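 Solubilized membrane fraction from COS-7 cells transfected with human FAAH, used at a final 0.05 mg/ml in 50 mM Hepes pH 7.5, 1 mM EDTA, 0.2% Triton X-100. Inhibitor pre-incubated 30 min at room temperature; 20 uM final AMC arachidonoyl amide added, reaction run 4 h at room temperature, fluorescence read.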
A word on the Ki: it is the equilibrium dissociation constant of an inhibitor or competing ligand from its target. Consider `O=C(c1ccc(B(O)O)cc1)N1CCCCC1` [II-164], for which the Ki is 0.01 to 0.1 µM. Take `OB(O)c1ccc(OCCCCc2ccccc2)cc1` [II-165]: the Ki lay in the range of 0.01 to 0.1 µM.

Take `CC1(C)OB(c2ccc(OCCCCc3ccccc3)cc2)OC1(C)C` [II-166]: the Ki lay in the range of 0.01 to 0.1 µM.

For `OB(O)c1ccc(OCCc2ccccc2)cc1` [II-167], the Ki was under 0.01 µM. For `CC1(C)OB(c2ccc(OCCc3ccccc3)cc2)OC1(C)C` [II-168], the Ki was in the range of 0.01 to 0.1 µM. For `OB(O)c1ccc(OCCCc2ccccc2)cc1` [II-169], the Ki was under 0.01 µM. The result for `CC1(C)OB(c2ccc(OCCCc3ccccc3)cc2)OC1(C)C` [II-170] reads 0.01 to 0.1 µM. Regarding `C[C@@H](NC(=O)c1ccc(B(O)O)cc1)c1ccccc1` [II-171], the Ki was 0.01 to 0.1 µM.

As to `C[C@H](NC(=O)c1ccc(B(O)O)cc1)c1ccccc1` [II-172], the inhibition constant (Ki) was 0.01 to 0.1 µM. Take `CN(C)c1cc(Oc2ccc(B(O)O)cc2)cc(Oc2cccc3ccccc23)c1` [II-173]: the Ki was over 1 µM. On to `CC1(C)OB(c2ccc(OCc3cncs3)cc2F)OC1(C)C` [II-174], for which the inhibitory constant (Ki) is under 0.01 µM. On to `OB(O)c1ccc(OCc2ccccn2)cc1F` [II-175], for which the inhibition constant (Ki) is over 1 µM.

As to `CC1(C)OB(c2ccc(OCc3ccccn3)cc2F)OC1(C)C` [II-176], the Ki is under 0.01 µM. To `OB(O)c1ccc(OCc2ccncc2)cc1F` [II-177] belongs 0.01 to 0.1 µM; to `CC1(C)OB(c2ccc(CN(Cc3ccccc3)Cc3ccccc3)cc2)OC1(C)C` [II-178], over 1 µM. As for `CC1(C)OB(c2ccc(OCc3ccncc3)cc2F)OC1(C)C` [II-179], the Ki lay within 0.01 to 0.1 µM. For `CN(C)c1cc(Oc2ccc(B(O)O)cc2)cc(Oc2cccc(F)c2)c1` [II-180], the inhibition constant (Ki) was over 1 µM.

Consider `CN(C)c1cc(Oc2ccc(Cl)cc2)cc(Oc2ccc(B(O)O)cc2)c1` [II-181], for which the Ki was 0.01 to 1 µM. For `CN(C)c1ccc(/N=N/c2ccc(B(O)O)cc2)cc1` [II-182], the Ki is 0.01 to 0.1 µM. In the case of `COC(=O)c1cc(Oc2cccc(F)c2)ccc1B(O)O` [II-183], the Ki is 0.01 to 0.1 µM. Take `c1ccc(-c2ccc(B3CCCO3)cc2)cc1` [II-184]: the Ki was in the range of 0.01 to 0.1 µM. As to `CN(C)c1ccc(/N=N/c2ccc(B3OC(C)(C)C(C)(C)O3)cc2)cc1` [II-185], the Ki lay within 0.01 to 1 µM.

On to `c1ccc(B2CCCO2)cc1` [II-186], for which the Ki is over 1 µM. Regarding `Cc1cc(NCc2ccc(B3OC(C)(C)C(C)(C)O3)cc2)ccc1F` [II-187], the Ki lay in the range of 0.01 to 0.1 µM. To `Cc1cc(CNc2ccc(B3OC(C)(C)C(C)(C)O3)cc2)ccc1F` [II-188] belongs over 1 µM; to `OB(O)c1ccc(/C=C\c2ccccc2)cc1` [II-189], over 1 µM; to `OB(O)c1ccc(Oc2cccc(Oc3cccc4ccccc34)c2)cc1` [II-190], 0.01 to 0.1 µM. To `OB(O)c1ccc(Oc2cccc(Oc3ccc(Cl)cc3)c2)cc1` [II-191] belongs under 0.01 µM. For the compound `COc1ccc(Oc2cc(Oc3ccc(B(O)O)cc3)cc(N(C)C)c2)cc1` [II-192], the Ki was in the range of 0.01 to 0.1 µM. For `COc1ccc(Oc2cccc(Oc3ccc(B(O)O)cc3)c2)cc1` [II-193], the Ki is under 0.01 µM. Consider `OB(O)c1ccc(Oc2cccc(F)c2)c(F)c1F` [II-194], for which the inhibition constant Ki is under 0.01 µM.

As for `OB(O)c1c(F)cc(Oc2cccc(F)c2)cc1F` [II-195], the Ki is under 0.01 µM. The result for `OB(O)c1ccc(Oc2cccc(N3CCCCC3)c2)cc1F` [II-196] reads over 1 µM.

With `OB(O)c1ccc(Oc2cccc(N3CCCC3)c2)cc1F` [II-197], the inhibitory constant (Ki) lay in the range of 0.01 to 0.1 µM. On to `OB(O)c1cc(F)c(Oc2cccc(F)c2)c(F)c1` [II-198], for which the inhibition constant (Ki) is under 0.01 µM. To `Cc1cc(CSc2ccc(B(O)O)c(F)c2)ccc1F` [II-199] belongs under 0.01 µM. `CNc1cccc(Oc2ccc(B(O)O)c(F)c2)c1` [II-200]: the inhibition constant Ki is under 0.01 µM. Turning to `CN(C)c1cccc(Oc2ccc(B(O)O)c(F)c2)c1` [II-201], the Ki fell in the range of 0.01 to 0.1 µM. As for `OB(O)c1ccc(Oc2cccc(F)c2)cc1C(F)(F)F` [II-202], the Ki fell in the range of 0.01 to 0.1 µM. With `N#Cc1cc(Oc2cccc(F)c2)ccc1B(O)O` [II-203], the Ki is under 0.01 µM.

In the case of `COc1cc(Oc2cccc(F)c2)ccc1B(O)O` [II-204], the Ki was under 0.01 µM. Take `CN(C)c1cccc(Oc2ccc(B(O)O)cc2F)c1` [II-205]: the Ki is under 0.01 µM. Turning to `COc1cccc(Oc2ccc(B(O)O)c(F)c2)c1` [II-206], the Ki is under 0.01 µM. Consider `OB(O)c1ccc(Oc2cccc(F)c2)cc1Cl` [II-207], for which the Ki was under 0.01 µM. On to `Cc1cc(-c2cccc(F)c2)ccc1B(O)O` [II-208], for which the Ki lay within 0.01 to 0.1 µM. Take `Cc1cc(Oc2cccc(F)c2)ccc1B(O)O` [II-209]: the Ki is 0.01 to 0.1 µM.

With `OB(O)c1ccc(Oc2ccc(F)c(F)c2)cc1F` [II-210], the Ki was under 0.01 µM. With `Cc1ccc(Oc2ccc(B(O)O)c(F)c2)cc1Cl` [II-211], the Ki was under 0.01 µM. As to `OB(O)c1ccc(Oc2cccc(OC(F)(F)F)c2)cc1F` [II-212], the Ki was under 0.01 µM. Turning to `Cc1cc(Oc2ccc(B(O)O)c(F)c2)ccc1Cl` [II-213], the inhibition constant (Ki) was under 0.01 µM. On to `CN(C)CCN(Cc1ccccc1)C(=O)C(Oc1ccc(B(O)O)cc1)c1ccccc1` (centres unmarked) [II-214], for which the Ki is over 1 µM. The result for `CN(C)CCNC(=O)C(Oc1ccc(B(O)O)cc1)c1ccccc1` (centres unmarked) [II-215] reads over 1 µM. For `O=C(C(Oc1ccc(B(O)O)cc1)c1ccccc1)N1CCCCC1` (centres unmarked) [II-216], the Ki lay within 0.01 to 1 µM. The result for `O=C(NCc1ccccc1)C(Oc1ccc(B(O)O)cc1)c1ccccc1` (centres unmarked) [II-217] reads 0.01 to 1 µM. In the case of `CCCCNC(=O)C(Oc1ccc(B(O)O)cc1)c1ccccc1` (centres unmarked) [II-218], the Ki lay in the range of 0.01 to 1 µM. Consider `CN(C)C(=O)C(Oc1ccc(B(O)O)cc1)c1ccccc1` (centres unmarked) [II-219], for which the inhibition constant (Ki) lay in the range of 0.01 to 1 µM. Turning to `CCCCNC(=O)c1cccc(Oc2ccc(B(O)O)cc2)c1` [II-220], the Ki was under 0.01 µM. Take `O=C(NCc1ccccc1)c1cccc(Oc2ccc(B(O)O)cc2)c1` [II-221]: the Ki was under 0.01 µM.

As to `O=S(=O)(Cc1ccccc1)c1ccc(B(O)O)cc1` [II-222], the Ki was over 1 µM. As to `O=C(c1ccc(B(O)O)cc1)N(Cc1ccccc1)Cc1ccccc1` [II-223], the Ki lay in the range of 0.01 to 1 µM. Turning to `COC(=O)C(Oc1ccc(B(O)O)cc1)c1ccccc1` (centres unmarked) [II-224], the Ki lay in the range of 0.01 to 0.1 µM.

Take `CC(C)NC(=O)c1cccc(Oc2ccc(B(O)O)cc2)c1` [II-225]: the inhibition constant (Ki) is under 0.01 µM.

`O=C(c1cccc(Oc2ccc(B(O)O)cc2)c1)N1CCCC1` [II-226]: the Ki lay within 0.01 to 0.1 µM.

Regarding `CN(C)C(=O)c1ccc(Oc2ccc(B(O)O)cc2)cc1` [II-227], the Ki lay within 0.01 to 0.1 µM. `CN(C)C(=O)c1cccc(Oc2ccc(B(O)O)cc2)c1` [II-228]: the Ki fell in the range of 0.01 to 0.1 µM. For the compound `CN(CCc1ccccc1)C(=O)c1ccc(B(O)O)cc1` [II-229], the Ki was under 0.01 µM. On to `CN(C(=O)c1ccc(B(O)O)cc1)c1ccccc1` [II-230], for which the inhibition constant (Ki) was in the range of 0.01 to 0.1 µM. To `OB(O)c1ccc(CSc2ccccc2)cc1` [II-231] belongs under 0.01 µM. For the compound `[O-][S+](Cc1ccc(B(O)O)cc1)c1ccccc1` (centres unmarked) [II-232], the Ki is 0.01 to 1 µM. The result for `[O-][S+](Cc1ccccc1)c1ccc(B(O)O)cc1` (centres unmarked) [II-233] reads 0.01 to 0.1 µM; that for `OB(O)c1ccc(SCc2ccccc2)cc1` [II-234], under 0.01 µM.
